# Test results from patent US6787341B2, “Pharmacological targeting of bacterial DNA ligase for treatment and prevention of bacterial infections” (priority 2001, dated 2004).
# Tests used:
# Assay type in all cases: biochemical, Amsacta moorei entomopoxvirus
# [1] = molecular target: T1, AmEPV ligase (Betaentomopoxvirus amoorei, UniProt Q9EMK7); experiment: Nucleotide cofactor specificity of AmEPV ligase in nick ligation
# Method: Reaction mixtures (20 μl) containing 50 mM Tris-HCl (pH 7.5), 10 mM (NH4)2SO4, 5 mM DTT, 5 mM MgCl2, 1 pmol of ^32P-labeled nicked DNA, 32 ng of AmEPV ligase, and 50 μM of the indicated nucleotide were incubated for 30 min at 22° C. A control reaction contained no added nucleotide cofactor (none). The reaction products were resolved by polyacrylamide gel electrophoresis. An autoradiogram of the gel is shown.
# A low level of nick ligation could be detected in the absence of added nucleotide (FIG. 6). Cofactor-independent ligation was attributed to pre-adenylated ligase in the enzyme preparation. […] Inclusion of NAD^+ in the reaction mixture stimulated nick ligation such that ˜90% of the input substrate molecules were sealed (FIG. 6). […] Indeed, none of the standard rNTPs or dNTPs were able to satisfy the requirement of AmEPV ligase for a high energy cofactor (FIG. 6). […] A Km of 9 μM NAD^+ was calculated from a double-reciprocal plot of the data.
# [2] = molecular target: T1, AmEPV ligase; details: for support of ligase activity as divalent cation: 5 mM
# [3] = molecular target: T1, AmEPV ligase; experiment: Step 3 phosphodiester formation at a pre-adenylated nick by AmEPV ligase; details: 50 μM NAD+
# Method: Truncated derivatives of AmEPV ligase deleted for motif Ia (NΔ70) or for the OB and HhH domains (CΔ216) were purified by Ni-agarose and phosphocellulose column cheomtography. FIG. 8A: Aliquots (3 μg) of full-sized AmEPV ligase (WT), NΔ70, and CΔ216 were analyzed by SDS-PAGE. A Coomassie blue-stained gel is shown. The positions and sizes (in kDa) of marker proteins are indicated on the left. FIG. 8B: Ligase adenylation reaction mixtures (20 μl) containing 50 mM Tris-HCl (pH 7.5), 5 mM DTT, 5 mM MgCl2, 1 μM [α-^32P]NAD^+ and 8 pmol of WT AmEPV ligase, NΔ70, or CΔ216 were incubated for 15 min at 22° C. The reaction products were resolved by SDS-PAGE and visualized by autoradiography. The positions and sizes (in kDa) of marker proteins are indicated on the right. FIG. 8C: Ligation of nicked DNA and nicked DNA-adenylate. Reaction mixtures (20 μl) containing 50 mM Tris-HCl (pH 7.5), 10 mM (NH4)2SO4, 5 mM DTT, 5 mM MgCl2, either 200 fmol of ^32P-labeled nicked DNA (pDNA) plus 50 μM NAD^+ or 200 fmol ^32P-labeled nicked DNA-adenylate (AppDNA) and no NAD^+, and 2 pmol of WT AmEPV ligase, NΔ70, or CΔ216 were incubated for 30 min at 22° C. The reaction products were resolved by denaturing PAGE. […]
# FIG. 9A: Kinetic analysis of step 3. […] The mixtures were adjusted to 5% glycerol and then analyzed by electrophoresis through a 5% native polyacrylamide gel containing 90 mM Tris-borate, 2.5 mM EDTA. […]
structure (smiles),measurement,setting,value
Nc1ncnc2c1ncn2[C@@H]1O[C@H](COP(=O)(O)OP(=O)(O)OP(=O)(O)O)[C@@H](O)[C@H]1O [ATP],stimulation of nick ligation as high energy cofactor,[1]; 50 μM nucleotide,failed to stimulate
[Mn+2] [Manganese],support of ligase activity as divalent cation,[2],"active, albeit less than magnesium"
NC(=O)c1ccc[n+]([C@@H]2O[C@H](COP(=O)([O-])OP(=O)(O)OC[C@H]3O[C@@H](n4cnc5c(N)ncnc54)[C@H](OP(=O)(O)O)[C@@H]3O)[C@@H](O)[C@H]2O)c1 [NADP],stimulation of nick ligation as high energy cofactor,[1]; 50 μM nucleotide,inactive
NC(=O)c1ccc[n+]([C@@H]2O[C@H](COP(=O)([O-])OP(=O)(O)OC[C@H]3O[C@@H](n4cnc5c(N)ncnc54)[C@H](O)[C@@H]3O)[C@@H](O)[C@H]2O)c1 [NAD^+],input substrate molecules sealed with nucleotide included,[1]; 50 μM nucleotide,~90%
same,NAD+ concentration at which nick joining activity plateaued,[1]; sub-saturating enzyme,50 to 100 µM
same,effect on step 3 catalysis by NΔ70,[3]; NΔ70,no effect whatsoever
same,decrement in extent of step 3 ligation by wild-type ligase,[3]; wild-type AmEPV ligase,5 fold
[Ca+2] [calcium],support of ligase activity as divalent cation,[2],did not support ligase activity
[Co+2] [cobalt],support of ligase activity as divalent cation,[2],"active, albeit less than magnesium"
[Cu+2] [cooper],support of ligase activity as divalent cation,[2],did not support ligase activity
[Mg+2] [magnesium],optimal divalent cation concentration for nick joining,[2],5 mM
[Zn+2] [zinc],support of ligase activity as divalent cation,[2],did not support ligase activity
